Converted amounts (≈) assume the structure as drawn.
What was measured:
[1] = Metabolic stability in human liver microsomes assessed as intrinsic clearance per mg protein; assay type: ADME, Microsome
[2] = Aqueous solubility in phosphate buffer at pH 6.5 by lyophilisation solubility assay; assay type: physicochemical
[3] = Metabolic stability in mouse liver microsomes assessed as intrinsic clearance per mg protein; assay type: ADME, Microsome

| SMILES | microsomal CLint [1] [µL/min/mg] | solubility [2] [µg/mL] | microsomal CLint [3] [µL/min/mg] |
| --- | --- | --- | --- |
| O=C(CCc1ccccc1)NCC(=O)NC(c1ccccc1)c1ccc(Cl)cc1 (centres undefined) | 887 | < 1 | 926 |
| O=C(CNC(=O)c1ccc(F)cc1)NC(c1ccccc1)c1cccc(C(F)(F)F)c1 (centres undefined) |  | < 1 | 19.3 |
| O=C(CNC(=O)c1ccc(F)cc1)NC(c1cccc(F)c1)c1cccc(F)c1 | 9.7 | < 1 |  |
| N#Cc1ccc(C(=O)NCC(=O)NC(c2ccccc2)c2ccc(Cl)cc2)cc1 (centres undefined) |  | 7 (≈ 17.3 µM) | 8.6 |

— ChEMBL document CHEMBL1144246, “Design, synthesis and structure-activity relationship of simple bis-amides as potent inhibitors of GlyT1” (Bioorg Med Chem Lett, 2008)
